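Five concentrations, 48 hours, 96-well plates. Abbreviation: GI50, concentration required for 50% inhibition of growth.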 The source made the active and inactive calls. Rule as the data show it: active = GI50 up to about 1.1 µM and inactive = higher.
Legend:
Test in all cases: growth of human tumour cells (NCI), 48 h
EKVX = system: EKVX
NCI-H23 = system: NCI-H23
Malme-3M = system: Malme-3M
SNB-19 = system: SNB-19
SK-OV-3 = system: SK-OV-3
SK-MEL-5 = system: SK-MEL-5
SN12C = system: SN12C
COLO 205 = system: COLO 205
HCT-15 = system: HCT-15
A549 = system: A549
UO-31 = system: UO-31
SNB-75 = system: SNB-75
M14 = system: M14
BT-549 = system: BT-549
T47D = system: T47D
OVCAR-5 = system: OVCAR-5
SK-MEL-28 = system: SK-MEL-28
HOP-92 = system: HOP-92
U-251 = system: U-251
NCI/ADR-RES = system: NCI/ADR-RES
UACC-257 = system: UACC-257
OVCAR-4 = system: OVCAR-4
NCI-H460 = system: NCI-H460
Hs-578T = system: Hs-578T
HL-60 = system: HL-60
IGROV-1 = system: IGROV-1
K562 = system: K562
UACC-62 = system: UACC-62
NCI-H522 = system: NCI-H522
SW-620 = system: SW-620
HT-29 = system: HT-29
MDA-N = system: MDA-N
CAKI-1 = system: CAKI-1
SF-539 = system: SF-539
MDA-MB-435 = system: MDA-MB-435
TK-10 = system: TK-10
ACHN = system: ACHN
KM12 = system: KM12
RXF 393 = system: RXF 393
OVCAR-8 = system: OVCAR-8
OVCAR-3 = system: OVCAR-3
SF-295 = system: SF-295
SR = system: SR
SK-MEL-2 = system: SK-MEL-2
SF-268 = system: SF-268
LOX IMVI = system: LOX IMVI
MOLT-4 = system: MOLT-4
HOP-62 = system: HOP-62
PC-3 = system: PC-3
CCRF-CEM = system: CCRF-CEM
HCT-116 = system: HCT-116
MDA-MB-231 = system: MDA-MB-231
NCI-H226 = system: NCI-H226
DU-145 = system: DU-145

## O=S(=O)(/N=C(\NO)Nc1ccc(Cl)cc1)c1ccc(-c2ccccn2)s1
EKVX
  GI50: 34.3 µM (inactive)
NCI-H23
  GI50: 37.3 µM (inactive)
Malme-3M
  GI50: 19.6 µM (inactive)
SNB-19
  GI50: > 100 µM (inactive)
SK-OV-3
  GI50: 56.1 µM (inactive)
SK-MEL-5
  GI50: 31.4 µM (inactive)
SN12C
  GI50: 24.4 µM (inactive)
COLO 205
  GI50: 45.1 µM (inactive)
HCT-15
  GI50: 39.7 µM
A549
  GI50: 61 µM (inactive)
UO-31
  GI50: 80.2 µM (inactive)
SNB-75
  GI50: 50.7 µM (inactive)
M14
  GI50: 56.1 µM (inactive)
BT-549
  GI50: 19.6 µM (inactive)
T47D
  GI50: 62.4 µM (inactive)
OVCAR-5
  GI50: 74.1 µM (inactive)
SK-MEL-28
  GI50: 69.2 µM (inactive)
HOP-92
  GI50: 27.4 µM (inactive)
U-251
  GI50: 44.4 µM (inactive)
NCI/ADR-RES
  GI50: 30.9 µM (inactive)
UACC-257
  GI50: 34 µM (inactive)
OVCAR-4
  GI50: 16.4 µM (inactive)
NCI-H460
  GI50: 87.3 µM (inactive)
Hs-578T
  GI50: 28.8 µM (inactive)
HL-60
  GI50: 24 µM (inactive)
IGROV-1
  GI50: 38.5 µM (inactive)
K562
  GI50: 50.2 µM (inactive)
UACC-62
  GI50: 44.2 µM (inactive)
NCI-H522
  GI50: 11.5 µM (inactive)
SW-620
  GI50: 48.1 µM (inactive)
HT-29
  GI50: 82.8 µM (inactive)
MDA-N
  GI50: 24.2 µM (inactive)
CAKI-1
  GI50: 6.25 µM (inactive)
SF-539
  GI50: 41.4 µM (inactive)
MDA-MB-435
  GI50: 27.5 µM (inactive)
TK-10
  GI50: 61.5 µM (inactive)
ACHN
  GI50: 35.6 µM (inactive)
KM12
  GI50: 86.9 µM (inactive)
RXF 393
  GI50: 19 µM (inactive)
OVCAR-8
  GI50: 69.5 µM (inactive)
OVCAR-3
  GI50: 4.03 µM (inactive)
SF-295
  GI50: 52.1 µM (inactive)
SR
  GI50: > 100 µM (inactive)
SK-MEL-2
  GI50: 46 µM (inactive)
SF-268
  GI50: 35.7 µM (inactive)
LOX IMVI
  GI50: 57.8 µM (inactive)
MOLT-4
  GI50: 40.1 µM (inactive)
HOP-62
  GI50: 52.1 µM (inactive)
PC-3
  GI50: 38.8 µM (inactive)
CCRF-CEM
  GI50: 42.8 µM (inactive)
HCT-116
  GI50: 38.6 µM (inactive)
MDA-MB-231
  GI50: 49.7 µM (inactive)
NCI-H226
  GI50: 90.8 µM (inactive)
DU-145
  GI50: > 100 µM (inactive)

— ChEMBL document CHEMBL1201862, “PubChem BioAssay data set” (2004)
